Results reported in patent publication US20250138031A1, “IN VITRO MEASUREMENT OF THE LYSIS OF A FIBRIN CLOT” (DIAGNOSTICA STAGO, priority 2021, published 2025).
Entries after “also recorded” stand apart in the source; their conditions may differ.

Assays:
[1] = test system: lysis of the fibrin clot in hemophilia-A plasma; assay: Coagulation-Lysis test in turbidimetry with intrinsic activators instead of FXIa; format: biochemical, human; conditions: all FVIII concentrations tested, 48 nM GEG, 290 nM silica, TF 0.5 pM
Procedure: The intrinsic activators in Stago reagents are ethylene glycol gallate at 23 mg/L (STA-Cephascreen) and silica at 20 g/L (STA-PTT analyzer).
As was done for the implementation of a viscoelastic method, turbidimetry tests were performed with a hemophilia-A patient from each group, overloaded with 0, 2, 20, 100% of Factor VIII (FVIII-Advate®). The coagulation reaction was initiated with ethylene glycol gallate (GEG) from 48 to 190 nM final test or with silica from 145 to 580 nM final test, without modifying the concentration of tissue factor which was kept at 0.5 pM final test for the two activators. These activators were added independently into the reagent under the same reference conditions as FXIa.
The aim is to determine the maximum difference in tolerance observed in parameters DOD t1, DOD t2, and TL, between FXIa and the intrinsic activators.

[2] = test system: lysis of the fibrin clot in hemophilia-A plasma; assay: Coagulation-Lysis test (turbidimetric, DOD t1 750 sec / t2 1400 sec) on hemophilia-A plasmas; format: biochemical, human
Procedure: Dynamic measurement of the formation and degradation of the fibrin clot is carried out on a set of samples. The test, called the “Coagulation-Lysis” test, is a turbidimetric, automated, encompassing test for measuring the formation and lysis of the fibrin clot. For the analysis, the invention takes advantage of only the “lysis” part of the fibrin clot formation and lysis curve. The test is performed by mixing the plasma sample, undiluted, with an intermediate reagent containing a very low concentration of tissue factor (TF), phospholipids (PPL), plasminogen activator (tPA), and activator of the intrinsic pathway, preferably factor XIa (FXIa). After incubating the mixture, the calcium reagent triggers the generation of thrombin and the formation of the fibrin clot which quickly begins to be degraded by the tPA (tissue plasminogen activator).
According to one embodiment, TF (tissue factor), PPL (phospholipids), FXIa, and tPA (tissue plasminogen activator) are mixed at the following concentrations: 0.5 pM, 4 μM, 100 PM and 0.13 μg/mL final test.
The undiluted plasma sample, preferably 200 μL, is mixed with the intermediate reagent, preferably 50 μL.
Next is a step of incubating the mixture at 37° C. then adding the calcium ion-based triggering reagent to the mixture (FIG. 1), preferably 50 μL in 102 mM final reagent (17 mM final test), to initiate the thrombin generation and fibrin clot formation (FIG. 1).
Then, the change in optical density is read (FIG. 1) dynamically (every 2 seconds) at a single wavelength between 350 and 800 nm, preferably at 540 nm and preferably for a duration of 1986 seconds (33 minutes).
In the context of this experimental section, the parameters or steps which were specifically used or carried out to obtain the presented results are as follows: • a. TF (tissue factor) and PPL (phospholipids) are mixed with an activator of the intrinsic pathway, FXIa, and tPA (tissue plasminogen activator), at the following concentrations: 0.5 pM, 4 μM, 100 pM, and 0.13 μg/mL final test. • b. The mixture is incubated at 37° C. then the calcium ion-based triggering reagent is added to the mixture, 50 μL in 102 mM final reagent (17 mM final test), to initiate formation of the fibrin clot. • c. The change in optical density is read dynamically (every 2 seconds) at a single wavelength, at 540 nm and for a duration of 1986 seconds (33 minutes). • d. The database is composed of all the deltas of the optical density (DOD) at the different measurement times and for each of the method parameters (Tmax; T09D—90% of the max DOD; TL—50% of the max DOD—max DOD is a measure of optical density). • e. […] This database is used as a training database which is trained on at least 70% of the overloaded samples selected randomly, and as a test database for the remaining overloaded samples (30%), then as a validation database for the patient samples.
The classification group is determined using the two DOD (delta optical density) parameters. For the turbidimetric method used, the times are defined within the ranges of [700-900] sec for time t1 and [1100-1400] sec for time t2. Preferably, time t1 was defined at 750 sec and time t2 was defined at 1400 sec. More precisely, the results shown in the Figures were obtained with t1=750 sec and t2=1400 sec. These parameters were selected in accordance with the method for the optimal choice or verification of these parameters, explained in this description. […] The range for time t2 was defined in combination with the results obtained at time t1.
As we did for the implementation of a viscoelastic method, we carried out turbidimetry tests where a hemophilia-A patient from each group is overloaded with different concentrations of therapeutic molecules of interest.
We wanted to test this type of molecule (below and FIG. 24) at concentrations of 0, 3, 15, and 30 μg/mL (Nougier et al. 2020) compared to the reference FVIII treatment (Advate®) at 0, 2, 20, and 100%. […]

[3] = at 15 mg/kg; cited from earlier work
[4] = test system: inhibitor (antibodies directed against FIX); assay: Residual titer of FIX after neutralization by the inhibitor in hemophilia-B plasma; format: biochemical, human; conditions: 40% Rixubis®, 30 minutes of incubation at 37° C.
Excerpt: For certain hemophilia patients, the presence of inhibitors justifies the use of emicizumab.

O=C(OCCO)c1cc(O)c(O)c(O)c1 [GEG, ethylene glycol gallate]
maximum deviation for parameters DOD t1, DOD t2 and TL compared to the reference method with FXIa ([1]; group 1): −9% | maximum deviation for parameters DOD t1, DOD t2 and TL compared to the reference method with FXIa ([1]; group 2): +3% | maximum deviation for parameters DOD t1, DOD t2 and TL compared to the reference method with FXIa ([1]; group 3): +8%

NC[C@H]1CC[C@H](C(=O)O)CC1 [tranexamic acid]
lysis kinetics of a fibrin clot ([2]; TXA (1 μg/mL, FIG. 7) in addition to maintenance therapy / missing factor FVIII, listed as TXA): becomes slower; also recorded: reducing lysis | classification group after treatment adjustment ([2]; group 3 patients (shortened lysis time), TXA added, FIG. 7): move these patients into group 2 | DOD (delta optical density) at time t2 compared with DOD at time t1 ([2]; plasma concentration of 5 μg/mL of tranexamic acid in the sample): identical | plasma concentration [3]: 2000 ng/mL

FXIII: Factor XIII or Catridecacog (NovoThirteen® NovoNordisk), activated by thrombin, stabilizes the clot
DOD t2 parameter ([2]; FXIII (NovoThirteen®) mainly in combination with FVIII, patients in the three groups): increases | resistance to lysis ([2]; FXIII in combination with FVIII, patients from the three groups): increases the resistance to lysis | change of classification group ([2]; hemophilia-A patient in group 3, 20% FVIII and 170% FXIII:Ag): moves from group 3 to group 2

Rixubis®: FIX molecule (Takeda) used as replacement molecule for hemophilia B
residual titer of FIX after neutralization ([4]; patient B14): 1% | residual titer of FIX after neutralization ([4]; patient B15): 21%

B1: emicizumab: commercial bispecific antibody mimicking FVIII by forming a complex with activated Factor IX and Factor X (antibody, chains of the INN, looked up, V domains shown)
VH: QVQLVQSGSELKKPGASVKVSCKASGYTFTDNNMDWVRQAPGQGLEWMGDINTRSGGSIYNEEFQDRVIMTVDKSTDTAYMELSSLRSEDTATYHCARRKSYGYYLDEWGEGTLVTVSS
VL: DIQMTQSPSSLSASVGDRVTITCKASRNIERQLAWYQQKPGQAPELLIYQASRKESGVPDRFSGSRYGTDFTLTISSLQPEDIATYYCQQYSDPPLTFGGGTKVEIK
VH2: QVQLVESGGGLVQPGGSLRLSCAASGFTFSYYDIQWVRQAPGKGLEWVSSISPSGQSTYYRREVKGRFTISRDNSKNTLYLQMNSLRAEDTAVYYCARRTGREYGGGWYFDYWGQGTLVTVSS
VL2: DIQMTQSPSSLSASVGDRVTITCKASRNIERQLAWYQQKPGQAPELLIYQASRKESGVPDRFSGSRYGTDFTLTISSLQPEDIATYYCQQYSDPPLTFGGGTKVEIK
classification of patient in group 2 versus group 3 ([2]; at 3 μg/mL emicizumab): overlap in classification | change in the group of overloaded hemophiliacs ([2]; emicizumab overload 0, 3, 15, 30 μg/mL): No change | change to DOD t1 ([2]; emicizumab overload 0, 3, 15, 30 μg/mL, regardless of the patient groups): little change | DOD t2 ([2]; groups 1 and 2, up to 15 μg/mL of emicizumab): increased | change in parameters DOD t1 and DOD t2 ([2]; patient in group 3, emicizumab overload): little change in parameters | resistance to lysis ([2]; patients in groups 1 and 2, emicizumab overload): increasing the resistance to lysis
